In US4868191A, “Alkaloid compounds, and pharmaceutical compositions containing them” (Harbor Branch Oceanographic Institution, Inc., priority 1988, dated 1989):
Converted amounts (≈) assume the structure as drawn.

Key:
[1] = system: A-549 human lung carcinoma cells; assay: Human Tumor Cell Line Assay, A-549; assay type: cell-based; conditions: 120 hours, read-out: A-549 activity score (cell density vs control)
Description: (§1) The following assay methods are utilized to evaluate the antitumor activity of the alkaloid compounds of the invention.
(§2) Human Tumor Cell Line Assay
(§3) Maintenance of Cell Lines
(§4) HCT-8 human colon tumor cells are grown in RPMI 1640 medium. A-549 human lung carcinoma cells are grown in Dublecco MEM medium. T-47D human breast cancer cells are cultured in Eagles MEM medium. All media (Biologos, Inc.) are supplemented with 10% fetal bovine serum and contain 50 ug/ml gentamicin. All humand tumor cell lines are incubated in humidified air containing 5% CO2 at 37° C. and subcultured once a week. The seeding levels are 200,000 T-47D cells, 60,000 HCT-8 cells and 300,000 A-549 cells per T-25 Flask. Vinblastine is used as a positive control.
(§5) 2. Incubate is a CO2 incubator for 48 hours.
(§6) 3. Add compound to each well and incubate for an additional 120 hours.
(§7) 4. Discard medium and stain with methylene blue (HCT-8) or crystal violet (A-549 and T-47D).
(§8) 5. Compare cell density of compound-treated with that of the control (no compound added) as follows: ND (not detectable), 90% 1+, 75-90% 2+, 50-74% 3+, 25-49% 4+, 25% of control growth.
(§9) The positive control is Vinblastine in aqueous solution at the following concentrations: […]

[2] = Immunomodulatory activity, two-way mixed lymphocyte reaction assay (% LCV); assay type: cell-based, murine; conditions: mouse, lymphocytes
Description: This example concerns immunomodulatory activity of compounds of the invention on murine derived, two-way mixed lymphocyte reaction assay.

[3] = system: Mouse P388; assay: Mouse P388 in vivo antitumor activity (T/C); conditions: Mouse P388, at 5 mg/kg
[4] = system: HCT-8 human colon tumor cells; assay: Human Tumor Cell Line Assay, HCT-8; assay type: cell-based; conditions: 120 hours, read-out: HCT-8 activity score (cell density vs control)
Description: as §1, §2, §3, §4, §5, §6, §7, §8, §9

[5] = system: T-47D human breast cancer cells; assay: Human Tumor Cell Line Assay, T-47D; assay type: cell-based; conditions: T47D, 120 hours, read-out: T-47D activity score (cell density vs control)
Description: as §1, §2, §3, §4, §5, §6, §7, §8, §9

[6] = system: P388 mouse leukemia cells; assay: P338 (P388) Mouse Leukemia Cell Assay, in vitro; assay type: cell-based; conditions: 48 hours
Description: as §1
P338 Mouse Leukemia Cell Assay
as §3
P338 mouse leukemis cells are grown in Dulbecco MEM medium with 10% horse serum, 4 mM glutamine, and 20 ug/ml gentamycin (Biologos, Inc.). Cells are incubated in humidified air containing 10% CO2 at 37° C. and subcultured 2 time per week.
1. Add compound to each well of a 24-well plate to tube and allow solvent to evaporate to dryness.
2. Add 2 ml (1.2×10^5) cells to each well or tube and mix.
3. Incubate in 10% CO2 at 37° C. for 48 hours.
4. Read plates with an inverted microscope, scoring activity from 1+ to 4+ as follows: ND (not detectable), 90% 1+, 75-90% 2+, 50-74% 3+, 25-49% 4+, 25% of control growth.
Alternatively, the activity may be designated as IC50 concentration which is the concentration of compound required to inhibit 50% of cell growth on the plate.
Cell counts are performed on each tube and results are reported as percent of control.

SMILES	activity at 0.01 µg/mL ([1]; A549, 0.01 ug/ml)	activity at 0.1 µg/mL ([1]; A549, 0.1 ug/ml)	activity at 1 µg/mL ([1]; A549, 1 ug/ml)	activity at 2 µg/mL ([1]; A549, 2 ug/ml)	viability ([2]; 0.01 ug/well)	viability ([2]; 0.1 ug/well)	viability ([2]; 1.0 ug/well)	viability ([2]; 10.0 ug/well)	in vivo T/C [3]	activity at 0.01 µg/mL ([4]; 0.01 ug/ml)	activity at 0.1 µg/mL ([4]; 0.1 ug/ml)	activity at 1 µg/mL ([4]; 1 ug/ml)	activity at 2 µg/mL ([4]; 2 ug/ml)	activity at 0.01 µg/mL ([5]; 0.01 ug/ml)	activity at 0.1 µg/mL ([5]; 0.1 ug/ml)	activity at 1 µg/mL ([5]; 1 ug/ml)	activity at 2 µg/mL ([5]; 2 ug/ml)	IC50 [6]
CN(C)CCc1c2ncsc2c2c3c(c4ccccc4nc13)C=CN2C [Dercitin 1, dercitin 1]	> 90%	< 25%	< 25%	< 25%	56%	48%	46%	67%	170%	> 90%	< 25%	< 25%	< 25%	> 90%	< 25%	< 25%	< 25%	0.05 µg/mL (≈ 0.139 µM)
CN(C)CCc1c2c3c(c4scnc14)N(C)CCC3c1ccccc1N2 (stereo not shown) [Tetrahydrodercitin 1, tetrahydrodercitin 1]	–	–	–	–	100%	91%	49%	41%	–	–	–	–	–	–	–	–	–	–
